Source: ChEMBL document CHEMBL1142357, “Synthesis and biological evaluation of 1-methyl-2-(3',4',5'-trimethoxybenzoyl)-3-aminoindoles as a new class of antimitotic agents and tubulin inhibitors” (J Med Chem, 2008)

Key:
[1] = system: L1210; assay: Antiproliferative activity against mouse L1210 cells; format: functional, cell-based
[2] = system: FM3A; assay: Antiproliferative activity against mouse FM3A cells; format: functional, cell-based
[3] = Antiproliferative activity against human Molt4/C8 cells; format: functional, cell-based; details: MOLT-4
[4] = system: CCRF-CEM; assay: Antiproliferative activity against human CEM cells; format: functional, cell-based
[5] = Inhibition of bovine tubulin polymerization after 20 mins; design: species or system Bos taurus
[6] = species: Bos taurus; assay: Displacement of [3H]colchicine from bovine tubulin at 5 uM
[7] = system: K562; assay: Cell cycle arrest in human K562 cells by accumulation at G0/G1 phase at 200 nM after 24 hrs by flow cytometry; format: functional
[8] = system: K562; assay: Cell cycle arrest in human K562 cells by accumulation at S phase at 200 nM after 24 hrs by flow cytometry; format: functional
[9] = system: K562; assay: Cell cycle arrest in human K562 cells by accumulation at G2/M phase at 200 nM after 24 hrs by flow cytometry; format: functional
[10] = system: K562; assay: Cell cycle arrest in human K562 cells by accumulation at A phase at 200 nM after 24 hrs by flow cytometry; format: functional
[11] = system: K562; assay: Induction of apoptosis in human K562 cells after 48 hrs by fluorescence microscopy; format: functional, cell-based; details: K562, 48 h
[12] = system: K562; assay: Cell cycle arrest in human K562 cells by accumulation at G0/G1 phase at 3 uM after 24 hrs by flow cytometry; format: functional
[13] = system: K562; assay: Cell cycle arrest in human K562 cells by accumulation at S phase at 3 uM after 24 hrs by flow cytometry; format: functional
[14] = system: K562; assay: Cell cycle arrest in human K562 cells by accumulation at G2/M phase at 3 uM after 24 hrs by flow cytometry; format: functional
[15] = system: K562; assay: Cell cycle arrest in human K562 cells by accumulation at sub G0-G1 phase at 3 uM after 24 hrs by flow cytometry; format: functional
[16] = system: K562; assay: Cell cycle arrest in human K562 cells by accumulation at G0/G1 phase at 30 nM after 24 hrs by flow cytometry; format: functional
[17] = system: K562; assay: Cell cycle arrest in human K562 cells by accumulation at S phase at 30 nM after 24 hrs by flow cytometry; format: functional
[18] = system: K562; assay: Cell cycle arrest in human K562 cells by accumulation at G2/M phase at 30 nM after 24 hrs by flow cytometry; format: functional
[19] = system: K562; assay: Cell cycle arrest in human K562 cells by accumulation at A phase at 30 nM after 24 hrs by flow cytometry; format: functional
[20] = system: K562; assay: Induction of apoptosis in human K562 cells at 60 nM after 48 hrs by fluorescence microscopy; format: functional

Structure (SMILES)	IC50 [1]	IC50 [2]	IC50 [3]	IC50 [4]	IC50 [5]	further results
CCn1c(C(=O)c2cc(OC)c(OC)c(OC)c2)c(N)c2cccc(OC)c21	> 10 µM	> 10 µM	9.1 µM	> 10 µM	–	–
COc1cc(C(=O)c2c(N)c3ccc(C)cc3n2C)cc(OC)c1OC	1.9 µM	1.5 µM	0.11 µM	0.4 µM	6.4 µM	–
COc1cc(C(=O)c2sc3c(OC)cccc3c2N)cc(OC)c1OC	0.033 µM	0.027 µM	0.0085 µM	0.0089 µM	2.1 µM	inhibition [6]: 39%
COc1cc(C(=O)c2[nH]c3cccc(C)c3c2N)cc(OC)c1OC	> 10 µM	> 10 µM	> 10 µM	> 10 µM	–	–
COc1cc(C(=O)c2c(N)c3c(OC)cccc3n2C)cc(OC)c1OC	> 10 µM	> 10 µM	> 10 µM	> 10 µM	–	–
COc1cc(C(=O)c2c(N)c3ccccc3n2C)cc(OC)c1OC	8.1 µM	> 10 µM	2.1 µM	6.8 µM	–	–
COc1ccc2c(N)c(C(=O)c3cc(OC)c(OC)c(OC)c3)n(C)c2c1	0.069 µM	0.097 µM	0.057 µM	0.071 µM	4.6 µM	inhibition [6]: 38%; Activity [7]: 15%; Activity [8]: 33%; Activity [9]: 52%; Activity [10]: 23%; AC50 [11]: 0.15 µM
COc1ccc2c(N)c(C(=O)c3cc(OC)c(OC)c(OC)c3)[nH]c2c1	0.97 µM	1.6 µM	0.63 µM	0.32 µM	> 40 µM	Activity [12]: 15%; Activity [13]: 35%; Activity [14]: 50%; Activity [15]: 25%; AC50 [11]: 3 µM
COc1cc(C(=O)c2[nH]c3ccc(Cl)cc3c2N)cc(OC)c1OC	> 10 µM	> 10 µM	> 10 µM	> 10 µM	–	–
COc1cc(C(=O)c2[nH]c3cccc(OC)c3c2N)cc(OC)c1OC	> 10 µM	> 10 µM	> 10 µM	> 10 µM	–	–
COc1cc(C(=O)c2c(N)c3cccc(OC)c3n2C)cc(OC)c1OC	0.015 µM	0.015 µM	0.0038 µM	0.0088 µM	1.4 µM	inhibition [6]: 76%; Activity [16]: 27%; Activity [17]: 28%; Activity [18]: 45%; Activity [19]: 24%; AC50 [11]: 0.03 µM; Activity [20]: 100%
COc1cc(C(=O)c2[nH]c3ccccc3c2N)cc(OC)c1OC	> 10 µM	> 10 µM	> 10 µM	> 10 µM	–	–
COc1cc(C(=O)c2c(N)c3cccc(C)c3n2C)cc(OC)c1OC	1.8 µM	1.4 µM	0.27 µM	1.2 µM	8.4 µM	–
COc1ccc(/C=C\c2cc(OC)c(OC)c(OC)c2)cc1O [COMBRETASTATIN A4]	–	–	0.0016 µM	–	–	–
COc1cc2c(N)c(C(=O)c3cc(OC)c(OC)c(OC)c3)n(C)c2cc1OC	5.4 µM	5 µM	5 µM	5 µM	18 µM	–
COc1cc(C(=O)c2c(N)c3cc(C)ccc3n2C)cc(OC)c1OC	1.9 µM	1.6 µM	1.7 µM	1.7 µM	10 µM	–
COc1cc(C(=O)c2[nH]c3cc(Cl)ccc3c2N)cc(OC)c1OC	> 10 µM	> 10 µM	9.2 µM	> 10 µM	–	–
COc1ccc2[nH]c(C(=O)c3cc(OC)c(OC)c(OC)c3)c(N)c2c1	9.7 µM	9.9 µM	6.9 µM	8.6 µM	–	–
COc1cc(C(=O)c2c(N)c3c(C)cccc3n2C)cc(OC)c1OC	> 10 µM	> 10 µM	> 10 µM	> 10 µM	–	–
CCn1c(C(=O)c2cc(OC)c(OC)c(OC)c2)c(N)c2ccc(OC)cc21	> 10 µM	> 10 µM	> 10 µM	> 10 µM	–	–
COc1cc2[nH]c(C(=O)c3cc(OC)c(OC)c(OC)c3)c(N)c2cc1OC	> 10 µM	> 10 µM	8.6 µM	9.5 µM	–	–
COc1cc(C(=O)c2[nH]c3ccc(C)cc3c2N)cc(OC)c1OC	> 10 µM	> 10 µM	> 10 µM	> 10 µM	–	–
COc1cc(C(=O)c2[nH]c3cc(C)ccc3c2N)cc(OC)c1OC	3.5 µM	> 10 µM	1.4 µM	2.6 µM	–	–
COc1ccc2c(C(=O)c3cc(OC)c(OC)c(OC)c3)c[nH]c2c1	0.0035 µM	0.0037 µM	0.0034 µM	0.0036 µM	2.9 µM	inhibition [6]: 84%
CCn1c(C(=O)c2cc(OC)c(OC)c(OC)c2)c(N)c2ccccc21	> 10 µM	> 10 µM	> 10 µM	> 10 µM	–	–
COc1cc(C(=O)c2c(N)c3ccc(Cl)cc3n2C)cc(OC)c1OC	1.1 µM	0.97 µM	0.48 µM	1 µM	7.1 µM	–
COc1cc(C(=O)c2[nH]c3c(OC)cccc3c2N)cc(OC)c1OC	> 10 µM	> 10 µM	0.64 µM	0.63 µM	–	–
COc1ccc2c(c1)c(N)c(C(=O)c1cc(OC)c(OC)c(OC)c1)n2C	4.2 µM	5.2 µM	2.1 µM	3.9 µM	15 µM	–
COc1cc(C(=O)c2[nH]c3c(C)cccc3c2N)cc(OC)c1OC	> 10 µM	> 10 µM	> 10 µM	> 10 µM	–	–
